Reference: patent publication US20260130894A1, “COMPOSITION COMPRISING ISOQUINOLINE DERIVATIVE AS ACTIVE INGREDIENT FOR PREVENTION OR TREATMENT OF PARKINSON'S DISEASE” (ALTMEDICAL CO., LTD., priority 2022, published 2026)

Columns and labels:
[1] = system: mitochondrial reactive oxygen species (ROS); experiment: Mitochondrial reactive oxygen species, MitoSOX assay; format: cell-based; conditions: CD1-012 10 μM or 15 μM, CCCP 10 μM, 24 hours (FIG. 6)
Procedure: It was confirmed whether the isoquinoline derivative according to the present invention induces mitochondrial dysfunction, similar to CCCP. To this end, the CD1-012 (10 μM or 15 μM) and CCCP (10 μM) were treated for 24 hours, and the mitochondrial membrane potential and mitochondrial reactive oxygen species (ROS) levels in each sample were analyzed. Mitochondrial membrane potential was analyzed using the TMRM (tetramethylrhodamine methyl ester) assay, and mitochondrial ROS levels were analyzed using the MitoSOX assay.

[2] = system: dopaminergic neurons in the substantia nigra; experiment: Number of dopaminergic neurons in substantia nigra of MPTP mouse model (TH immunochemical staining); format: in vivo; conditions: MPTP mice administered CD1-012, TH staining (FIGS. 13A and 13B)
Procedure: Subsequently, it was confirmed whether CD1-012 administration can inhibit dopaminergic neuron death in the substantia nigra of the animal model of Parkinson's disease. To this end, the number of dopaminergic neurons was measured by performing TH immunochemical staining on the substantia nigra of the mice undergoing the behavioral experiment in Example 4.

HeLa-Parkin cell line = experiment: Mitophagy activity in HeLa-Parkin cells (FACS); format: cell-based, human; conditions: FACS (FIG. 2B)
Procedure: It was confirmed whether CD1-012 synthesized in Example 1 increases mitophagy activity in various cell lines. To this end, CD1-012 and Comparative Example 1 (CCCP) were treated in the SH-SY5Y cell line, a human neuroblastoma cell line expressing mt-Keima fluorescent protein, and in the HeLa-Parkin cell line, a HeLa cervical cancer cell line expressing Parkin (E3 ligase). Following this treatment, the mitophagy activity of each sample was analyzed using flow cytometry (FACS), and the results are shown in FIGS. 2A to 2B.

[3] = system: human nerve cell line H-SY5Y; experiment: Mitochondrial function in sporadic Parkinson's disease cell model (MPP+ or 6-OHDA); format: cell-based; conditions: CD1-012 20 μM one day
Procedure: Sporadic Parkinson's disease has progressive motor/non-motor dysfunction symptoms, and most patients with Parkinson's disease have this disease. In this example, the therapeutic effect of CD1-012 on sporadic Parkinson's disease was confirmed. To this end, after a sporadic Parkinson's disease cell model was manufactured by treating a human nerve cell line H-SY5Y with the neurotoxins MPP+(62.5 μM) and 6-OHDA (40 μM) for two days, the cell model was treated with CD1-012 (20 μM) for one day and then the membrane potential and ATP production capacity of mitochondria were analyzed after two days.

[4] = system: mouse model of Parkinson's disease established by injecting MPTP; experiment: Motor performance (pole test, Rota-rod test) in MPTP mouse model of Parkinson's disease; format: in vivo
Procedure: In this example, the effect of the compound of the present invention (CD1-012) on treating Parkinson's disease was confirmed using a mouse model of Parkinson's disease. To this end, a mouse model of Parkinson's disease established by injecting the neurotoxin, 1-methyl-4-phenyl-1,2,3,6-tetrahydropyridine (MPTP), was used. After nasal administration of CD1-012 at a concentration of 1 mg/kg daily for 2 weeks to the mouse model, motor performance was analyzed using the pole test and Rota-rod test (FIG. 11A).

PINK1-deficient MEFs = experiment: Mitochondrial function in PINK1-deficient MEFs (TMRM, MitoSOX-Red, ATP production); format: cell-based, mouse; conditions: 40 μM for 24 hours
Procedure: Subsequently, PINK1-deficient MEFs were treated with CD1-012 at a concentration of 40 μM for 24 hours, and 4 days later, mitochondrial function as analyzed. The mitochondrial membrane potential was analyzed by the tetramethyl rhodamine methyl ester (TMRM) assay, and mitochondrial ROS was analyzed using the MitoSOX-Red assay. […] Conversely, the level of mitochondrial ROS, which was elevated compared to the wild-type cells, was reduced by CD1-012 treatment (FIG. 8D).

[5] = system: wild type (WT) and PINK1-deficient (PINK1−/−) mouse embryonic fibroblasts (MEFs); experiment: Mitochondrial protein Cox2 level by western blotting in WT and PINK1-deficient MEFs; format: cell-based; conditions: 40 μM, 24 hours (FIG. 8A)
BEAS-2B cell line = experiment: Autophagy activity in BEAS-2B cells expressing Keima (confocal microscope); format: cell-based, human; conditions: 15 μM, 18 hours (FIG. 4B)
Procedure: It was confirmed whether CD1-012 synthesized in Example 1 specifically increases only mitophagy activity. To this end, the BEAS-2B cell line expressing mt-Keima was treated with CD1-012 (15 μM) or Comparative Example 1 (CCCP, 10 μM) for 18 hours, and mitophagy activity was analyzed using a confocal microscope. Additionally, to measure autophagy activity, the BEAS-2B cell line expressing Keima fluorescent protein was incubated in Hanks' balanced salt solution (HBSS) for 3 hours to induce a starvation condition (starv.), and the results were compared with samples treated with CD1-012 (15 μM) for 18 hours using a confocal microscope.

[6] = system: PINK1-deficient Drosophila (B9); experiment: Mitochondrial function in Drosophila model of Parkinson's disease; format: in vivo
Procedure: In this example, to further verify the effect of the compound of the present invention (CD1-012) on improving mitochondrial dysfunction, a Drosophila model of Parkinson's disease was used. To this end, after administering CD1-012 to PINK1 gene-deficient Drosophila, mitochondrial function was analyzed. […] As a result, the number of damaged mitochondria (with abnormally swollen morphology) observed in the PINK1-deficient Drosophila was reduced in the CD1-012-treated group as compared to an untreated control (FIG. 9A). […] In addition, after 2 weeks of CD1-012 administration, it could be observed that the ATP production capacity of the brain tissue of the PINK11-deficient Drosophila was restored (FIG. 9C).

Oc1cc2c(cc1O)-c1cc3ccc(O)c(O)c3c[n+]1CC2 [CD1-012, 2,3,9,10-tetrahydroxy-5,6-dihydroisoquinolino[3,2-a]isoquinolin-7-ium bromide]
mitochondrial ROS levels [1]: no increase in mitochondrial ROS was detected
number of dopaminergic neurons in substantia nigra [2]: restored to a level similar to the control
mitophagy activity compared to the control group (Con) (HeLa-Parkin cell line): significantly increased mitophagy activity
mitochondrial membrane potential ([3]; 6-OHDA (40 μM) model, analyzed after two days (FIG. 10B)): restored
ATP synthesis capacity of mitochondria ([3]; 6-OHDA (40 μM) model, analyzed after two days (FIG. 10D)): significantly restored
mitochondrial membrane potential ([3]; MPP+ (62.5 μM) model, analyzed after two days (FIG. 10A)): restored
ATP synthesis capacity of mitochondria ([3]; MPP+ (62.5 μM) model, analyzed after two days (FIG. 10C)): significantly restored
pole test, motor performance (time to reach the ground) ([4]; MPTP mice, nasal 1 mg/kg daily for 2 weeks (FIG. 11B)): recovered to a level equivalent to that of the normal control
Rota-rod test, time spent on the cylinder ([4]; MPTP mice, nasal 1 mg/kg daily for 2 weeks (FIG. 11C)): markedly recovered
motor performance of normal mice administered CD1-012 alone compared to untreated normal control (toxicity) ([4]; normal mice, CD1-012 alone): no significant difference in motor performance
mitochondrial ATP production (reduced in PINK1-deficient cells) (PINK1-deficient MEFs; analyzed 4 days later (FIG. 8E)): restored
level of mitochondrial ROS (elevated in PINK1-deficient cells) (PINK1-deficient MEFs; analyzed 4 days later, MitoSOX-Red (FIG. 8D)): reduced
mitochondrial membrane potential (decreased in PINK1-deficient cells) (PINK1-deficient MEFs; analyzed 4 days later, TMRM (FIG. 8C)): restored
Cox2 protein level [5]: significantly decreased
autophagy activity compared to the untreated control group (BEAS-2B cell line): no significant difference in autophagy activity
mitochondrial ROS in brain tissue (DCF-DA staining) ([6]; 1 mM for 2 weeks (FIG. 9B)): significantly inhibited
number of damaged mitochondria (abnormally swollen morphology) in dopaminergic neurons compared to untreated control ([6]; 1 mM for 2 weeks, brain tissue (FIG. 9A)): reduced
ATP production capacity of brain tissue ([6]; 2 weeks of administration (FIG. 9C)): restored
